Data on eight compounds can be found in PubChem BioAssay (NCI).

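Interpolation was linear, between the two tested concentrations surrounding the appropriate level; five concentrations were tested over 48 hours in 96-well plates. TGI: concentration producing complete growth inhibition.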

Common to all, as to experiment: NCI tumour cell line growth inhibition, 48 h
Experiment [1] relates to A549 NSCLC.
The test system of experiment [2] is ACHN renal.
For experiment [3], the system named is CAKI-1 renal.
Experiment [4] has as its system HCT-116 colon.
Experiment [5] concerns KM12 colon.
For experiment [6], the system named is NCI-H226 lung.
The subject of experiment [7] is NCI-H460 lung.
Experiment [8] concerns NCI-H522 lung.
The test system of experiment [9] is OVCAR-3 ovarian.
Experiment [10] deals with OVCAR-8 ovarian.
The subject of experiment [11] is SF-268 CNS.
For experiment [12], the system named is SF-295 CNS.
For experiment [13], the system named is SF-539 CNS.
The subject of experiment [14] is SK-MEL-28 melanoma.
Experiment [15] deals with SNB-75 CNS.
Experiment [16] has as its system U251 CNS.
Experiment [17] concerns UO-31 renal.
Experiment [18] has as its system NCI/ADR-RES ovarian.
In experiment [19] the test system is PC-3 prostate.
The subject of experiment [20] is DU-145 prostate.

For the compound `C/C(CN1C(=O)c2ccccc2C1=O)=N\NS(=O)(=O)c1ccc(F)cc1`, the TGI in [1], in experiment [2], in [3], in [4], in experiment [5] and in experiment [6] was over 100 µM throughout. The TGI in [7], in experiment [8], in experiment [9], in experiment [10], in [11] and in [12] was over 100 µM each time. The TGI in [13], in [14], in experiment [15], in experiment [16] and in experiment [17] was over 100 µM in each case.
For `Cn1c2c(cc(-c3ccccc3)c1=O)COc1ccccc1-2`, the TGI in experiment [1] is over 100 µM; in [2] it was 91.9 µM; in experiment [3] it was over 100 µM; in experiment [4], 37.9 µM; in [5] it was 29 µM; in experiment [6], over 100 µM. Moreover, the TGI in experiment [7] was 70.7 µM; in experiment [8], 52.3 µM; in [9], over 100 µM; in experiment [10], over 100 µM; in experiment [11] it was over 100 µM; in experiment [12], 74.9 µM. Further, the TGI is over 100 µM in experiment [13]; 84.6 µM in [14]; over 100 µM in [15]; over 100 µM in experiment [16]; 63.3 µM in [17].
Consider `CN(NC(=O)c1cccs1)C1=NCCN1`, for which the TGI in experiment [1], in [2], in experiment [4], in experiment [5], in experiment [6] and in experiment [7] was over 100 µM each time. The TGI in [8], in experiment [18], in experiment [9], in experiment [10], in experiment [19] and in experiment [11] was over 100 µM each time. In addition, the TGI in experiment [12], in [13], in experiment [14], in experiment [15], in experiment [16] and in [17] was over 100 µM throughout.
Turning to `CCCOCN1COCN=C1NC#N`, the TGI in experiment [1], in experiment [2], in experiment [3], in [4], in experiment [5] and in experiment [6] was over 100 µM throughout. For the same compound, the TGI in experiment [7], in experiment [8], in [9], in experiment [10], in experiment [11] and in [12] was over 100 µM in each case. Also, the TGI in experiment [13] was over 100 µM; in [14], over 100 µM; in experiment [15], over 100 µM; in experiment [16] it was 43.8 µM; in experiment [17], over 100 µM.
On to `CCOC(=O)c1cn2c([nH]c3ccccc32)c(C#N)c1=O`, for which the TGI in [1], in experiment [2], in [3], in experiment [4], in experiment [5] and in experiment [6] was over 100 µM throughout. The TGI in experiment [7], in experiment [8], in [9], in [10], in experiment [11] and in [12] was over 100 µM throughout. In addition, the TGI in experiment [13], in [14], in [15], in [16] and in experiment [17] was over 100 µM each time.
Consider `Nc1ccc(C(=O)NN2C(=O)C(Cl)C2c2cccc([N+](=O)[O-])c2)cc1` (stereo not drawn), for which the TGI in experiment [1] was over 100 µM; in experiment [2], 50.9 µM; in [3] it was 36 µM; in experiment [4], 34.2 µM; in [5] it was 30.6 µM; in experiment [6], 36.8 µM. The TGI was over 100 µM in experiment [7]; 25.1 µM in [8]; 41.8 µM in [9]; 39.3 µM in experiment [10]; 38.6 µM in experiment [11]; 43.1 µM in [12]. For the same compound, the TGI in experiment [13] is 35.1 µM; in experiment [14], 38.5 µM; in [15], 35.6 µM; in experiment [16], 27.3 µM; in experiment [17], 31.3 µM.
Regarding `COC1=CC(=O)c2ccccc2C1(C)C1=NC(C)(C)CO1` (stereo not drawn), the TGI in experiment [1], in experiment [2], in [3], in experiment [4], in experiment [5] and in [6] was over 100 µM throughout. The TGI in [7], in [8], in experiment [9], in [10], in experiment [11] and in [12] was over 100 µM in each case. Also, the TGI in [13], in [14], in [15], in experiment [16] and in experiment [17] was over 100 µM in each case.
Regarding `CC1(C)O[C@@H](CP(c2ccccc2)c2ccccc2)[C@H](CP(c2ccccc2)c2ccccc2)O1`, the TGI in experiment [1] is 85.7 µM; in experiment [2] it was over 100 µM; in [3], over 100 µM; in [20], over 100 µM; in [4], 20.9 µM; in experiment [5] it was 54.7 µM. Moreover, the TGI in experiment [6] is 51.1 µM; in [7], over 100 µM; in experiment [8], 12.8 µM; in experiment [18], 36 µM; in experiment [9] it was 33.6 µM; in experiment [10], 20.5 µM. Also, the TGI in experiment [11] was 25.3 µM; in [12], 57.7 µM; in experiment [13], 21.1 µM; in experiment [14], 28 µM; in [15], 27.9 µM; in experiment [16], 20.2 µM.
